Each structure is given as a SMILES string.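 Test compounds were applied to cells in 96-well plates for 48 hours at 5 doses. Abbreviation: GI50, concentration required for 50% inhibition of growth.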 Activity calls are given as the source filed them. Cut-off read from the data, not from the text of the source: active = GI50 up to about 1.1 µM and inactive = higher. Starred links: 1 amine or outer side, 2 acyl side, 3 side chain; linkers in the order of their positions; H or OH if unused. Residues, ends and D or L forms follow the SMILES beside them. *: point of attachment. γGlu = O=C(O)[CH](CCC(=O)[*:2])N[*:1]; NHOH = ON*

Some test systems named below: A549; ACHN; CCRF-CEM; COLO 205; EKVX; HCC 2998; HCT-116; K562; LOX IMVI; MOLT-4; RPMI-8226; RXF 393; SF-295; SF-539; SK-OV-3; SNB-19; SNB-75; TK-10; U-251; UO-31.
Assay in all cases: inhibition of tumour cell growth, NCI panel, 48 h

With `CCOC(=O)C(Cc1ccc(OC(=O)c2ccc(OC)cc2)cc1)NC(=O)C(F)(F)F` (stereo not given), the GI50 in the experiment with A549 was > 100 µM (inactive); in the experiment with ACHN, 53.6 µM (inactive); in the experiment on CCRF-CEM, 39.5 µM (inactive); with COLO 205, > 100 µM (inactive); in the experiment on EKVX it was > 100 µM (inactive); in the experiment on HCC 2998 it was > 100 µM (inactive). The GI50 in the experiment with HCT-116 was > 100 µM (inactive); in the experiment with K562, > 100 µM (inactive); in the experiment on LOX IMVI it was > 100 µM (inactive); in the experiment with MOLT-4, > 100 µM (inactive); in the experiment with RPMI-8226, > 100 µM (inactive); with RXF 393, 27.9 µM (inactive). Besides, the GI50 with SF-295 was 80.7 µM (inactive); in the experiment with SF-539, > 100 µM (inactive); in the experiment with SK-OV-3, > 100 µM (inactive); with SNB-19, > 100 µM (inactive); in the experiment with SNB-75 it was 20.7 µM (inactive); in the experiment with TK-10, > 100 µM (inactive). Besides, the GI50 is 69.3 µM (inactive) in the experiment on U-251 and > 100 µM (inactive) in the experiment with UO-31.

As to `Cc1nc2nnc(C)n2c2c1C(=O)Nc1ccccc1N2`, the GI50 in the experiment with A549, with ACHN, in the experiment with CCRF-CEM, in the experiment with COLO 205, with EKVX and with HCC 2998 was > 100 µM (inactive) each time. For the same compound, the GI50 in the experiment on HCT-116, in the experiment with K562, in the experiment with LOX IMVI, in the experiment with MOLT-4, with RPMI-8226 and with RXF 393 was > 100 µM (inactive) in each case. For the same compound, the GI50 in the experiment on SF-295, in the experiment on SF-539, in the experiment on SK-OV-3, in the experiment with SNB-19, in the experiment with SNB-75 and with TK-10 was > 100 µM (inactive) each time. Also, the GI50 with U-251 and in the experiment on UO-31 was > 100 µM (inactive) throughout.

Consider `CCOC(=O)CNC(=O)C(CCC(=O)NO)NC(=O)CCC(N)C(=O)O` (stereo not given) (γGlu-Glu(NHOH)-Gly-OEt; configuration not given here), for which the GI50 in the experiment with A549, in the experiment on ACHN, in the experiment with CCRF-CEM, with COLO 205, with EKVX and with HCC 2998 was > 100 µM (inactive) each time. Also, the GI50 in the experiment on HCT-116, with K562, with LOX IMVI, in the experiment with MOLT-4, in the experiment on RPMI-8226 and in the experiment with RXF 393 was > 100 µM (inactive) throughout. For the same compound, the GI50 in the experiment with SF-295, in the experiment on SF-539, in the experiment with SK-OV-3, in the experiment with SNB-19, in the experiment on SNB-75 and in the experiment with TK-10 was > 100 µM (inactive) in each case. Moreover, the GI50 in the experiment with U-251 and in the experiment with UO-31 was > 100 µM (inactive) throughout.

For `CCc1nc(N)nc(N)c1-c1ccc2c(c1)nnn2CCc1ccccc1`, the GI50 in the experiment on A549 is 3.09 µM (inactive); in the experiment on ACHN, 7.23 µM (inactive); in the experiment with CCRF-CEM it was 7.23 µM (inactive); in the experiment with COLO 205 it was 14.9 µM (inactive); with EKVX, 21.8 µM (inactive); in the experiment on HCC 2998 it was 13.9 µM (inactive). Besides, the GI50 in the experiment on HCT-116 is 2.36 µM (inactive); in the experiment with K562, 1.55 µM (inactive); in the experiment with LOX IMVI, 5.16 µM (inactive); in the experiment on MOLT-4, 8.91 µM (inactive); in the experiment on RPMI-8226, 13.6 µM (inactive); in the experiment on RXF 393, 26.4 µM (inactive). Besides, the GI50 in the experiment on SF-295 was 8.3 µM (inactive); with SF-539, 21.3 µM (inactive); in the experiment with SK-OV-3, 45.4 µM (inactive); in the experiment with SNB-19 it was 23.9 µM (inactive); with SNB-75, 15.8 µM (inactive); in the experiment with TK-10, 35.4 µM (inactive). Further, the GI50 is 7.69 µM (inactive) in the experiment with U-251 and 16.3 µM (inactive) in the experiment with UO-31.

Take `CC(C)=CCCC(C)CCOS(=O)C(F)(F)F` (stereo not given): the GI50 in the experiment with A549 is 22.9 µM (inactive); with ACHN, 11.4 µM (inactive); in the experiment with CCRF-CEM it was 4.29 µM (inactive); with COLO 205, 4.7 µM (inactive); in the experiment with EKVX, 10.4 µM (inactive); in the experiment with HCC 2998, 13.2 µM (inactive). Besides, the GI50 in the experiment on HCT-116 is 12.6 µM (inactive); with K562, 3.78 µM (inactive); with LOX IMVI, 16.3 µM (inactive); with MOLT-4 it was 2.58 µM (inactive); in the experiment on RPMI-8226 it was 29.4 µM (inactive); in the experiment on RXF 393, 1.89 µM (inactive). The GI50 in the experiment on SF-295 was 25.1 µM (inactive); in the experiment with SF-539, 31.3 µM (inactive); in the experiment with SK-OV-3, 22.1 µM (inactive); with SNB-19, 22.1 µM (inactive); with SNB-75, 20.5 µM (inactive); with TK-10 it was > 100 µM (inactive). Moreover, the GI50 in the experiment on U-251 was 9.66 µM (inactive); with UO-31 it was 13.1 µM (inactive).

`Cc1cc(C)nc(NS(=O)(=O)c2ccc(NN=c3c4ccccc4n(C)c4ccccc34)cc2)n1`: the GI50 in the experiment with A549 is 35.4 µM (inactive); in the experiment on ACHN, 21.6 µM (inactive); with CCRF-CEM, 15.7 µM (inactive); with COLO 205, 29.7 µM (inactive); in the experiment with EKVX, 26.4 µM (inactive); in the experiment with HCC 2998 it was 28.3 µM (inactive). Also, the GI50 is 25.7 µM (inactive) in the experiment with HCT-116; 16.7 µM (inactive) in the experiment on K562; 23.7 µM (inactive) with LOX IMVI; 15.5 µM (inactive) with MOLT-4; 27.5 µM (inactive) in the experiment with RPMI-8226; 7.62 µM (inactive) in the experiment with RXF 393. The GI50 was 44.7 µM (inactive) in the experiment with SF-295; 44.4 µM (inactive) with SF-539; 27.2 µM (inactive) with SK-OV-3; 42.3 µM (inactive) in the experiment on SNB-19; 12.7 µM (inactive) with SNB-75; 28.6 µM (inactive) in the experiment with TK-10. The GI50 is 34.5 µM (inactive) in the experiment with U-251 and 16.6 µM (inactive) with UO-31.

As for `CC1(O)CC2(O)C=CC3=C(C(=O)c4cccc(O)c4C3=O)C2(O)C(=O)C1O` (stereo not given), the GI50 was 9.95 µM (inactive) with A549; 1.63 µM (inactive) in the experiment on ACHN; 0.206 µM (active) in the experiment with CCRF-CEM; 0.152 µM (active) in the experiment with COLO 205; 2.44 µM (inactive) in the experiment with EKVX; 4.09 µM (inactive) in the experiment with HCC 2998. In addition, the GI50 is 0.863 µM (active) in the experiment on HCT-116; 0.94 µM (active) in the experiment with K562; 1.47 µM (inactive) in the experiment on LOX IMVI; 0.56 µM (active) in the experiment with MOLT-4; 1.26 µM (inactive) with RPMI-8226; 0.964 µM (active) with RXF 393. In addition, the GI50 in the experiment with SF-295 is 13.6 µM (inactive); in the experiment with SF-539, 5.5 µM (inactive); in the experiment with SK-OV-3, 15.2 µM (inactive); in the experiment on SNB-19, 16.6 µM (inactive); with SNB-75, 8.38 µM (inactive); with TK-10, 1.73 µM (inactive). The GI50 was 4.04 µM (inactive) in the experiment on U-251 and 1.99 µM (inactive) with UO-31.

For `CCOC(=O)C1C2C1C1C(C(=O)OCC)C21` (stereo not given), the GI50 in the experiment with A549, in the experiment with ACHN, in the experiment on CCRF-CEM, with COLO 205, with EKVX and with HCC 2998 was > 100 µM (inactive) throughout. In addition, the GI50 in the experiment with HCT-116 was > 100 µM (inactive); in the experiment on K562, > 100 µM (inactive); in the experiment with LOX IMVI, > 100 µM (inactive); in the experiment on MOLT-4 it was > 100 µM (inactive); in the experiment on RPMI-8226, 50.4 µM (inactive); in the experiment on RXF 393, 81.8 µM (inactive). Also, the GI50 in the experiment with SF-295, in the experiment with SF-539, in the experiment on SK-OV-3, in the experiment on SNB-19, in the experiment on SNB-75 and in the experiment on TK-10 was > 100 µM (inactive) in each case. In addition, the GI50 with U-251 and in the experiment on UO-31 was > 100 µM (inactive) each time.

(Values after ChEMBL document CHEMBL1201862, “PubChem BioAssay data set” (2004).)
